Columns and labels:
PASK [1] = biological target: PASK (Homo sapiens (Human), UniProt Q96RG2); experiment: PAS Kinase FRET Assay; format: biochemical; settings: TR-FRET, Ulight-peptide substrate; read-out: IC50 Kinase Domain
Text: PAS Kinase FRET Assay The aim of the FRET assay is to determine the inhibition potential of test compounds on targeted kinase. This assay platform provides a homogenous screening method for measuring kinase activity by quantitating the amount of phospho-substrate in solution following a kinase reaction. In the presence of kinase and ATP, the Ulight-peptide is phosphorylated and captured by an anti-phospho-substrate antibody, which brings the Eu chelate donor and Ulight acceptor dyes into close proximity. […] The contents of the plate were and incubated at RT for 1 h. The reaction was stopped by adding 5 μl of stop solution to each test well followed by mixing and incubation at RT for 10 minutes. 5 μl of detection mix (detection antibody diluted in detection buffer) was added; the contents of the plate were mixed and then incubated in the dark for 1 hour at RT. […] The results were graphed to calculate the EC50. Titration of ATP at the EC50 concentration of kinase to determine ATP Km,app. was performed using the following method. […] The contents of the plate were and incubated at RT for 1 h. The reaction was stopped by adding 5 μl of stop solution to each test well followed by mixing and incubation at RT for 10 minutes. 5 μl of detection mix (detection antibody diluted in detection buffer) was added; the contents of the plate were mixed and then incubated in the dark for 1 hour at RT. […] The results were graphed to calculate the EC50 as the ATP Km,app. […] If compound is not soluble under this condition, it was diluted to 3 mM. Kinase reaction buffer was prepared containing 10 mM MgCl2, 50 mM HEPES, 1 mM EGTA, 0.01% TWEEN-20, 2 mM DTT. […] As a positive control, 2.5 μl of positive compound was added to assay wells, and 2.5 μl of DMSO to assay wells as vehicle control. Kinase solution was prepared in reaction buffer at 2× final assay concentration. Kinase solution (5 μl) was added to each well of the assay plate. The substrate and ATP solution was prepared in kinase reaction buffer at 4× final assay concentration. The kinase reaction was started by adding 2.5 μl of substrate+ATP mix solution to each well of the assay plate. The plate is mixed on a plate shaker; then covered and allowed to react for 2 hours in the dark at 25° C. without shaking. The reaction was stopped by adding 5 μl of stop solution to each test well followed by mixing and incubation at RT for 10 minutes in the dark. 5 μl of detection mix (detection antibody diluted in detection buffer) was added; the contents of the plate were mixed and then incubated in the dark for 1 hour at RT.

PASK [2] = biological target: PASK (UniProt # Q96RG2; human recombinant N-terminal GST tagged construct, residues 879-1323) (Homo sapiens (Human), UniProt Q96RG2); experiment: PASK ATP Radiochemical Assay; format: biochemical; settings: 33P-ATP radiochemical, Myelin Basic Protein substrate; read-out: IC50 Kinase Domain
Chain of PASK (UniProt # Q96RG2; human recombinant N-terminal GST tagged construct, residues 879-1323) (Homo sapiens (Human), UniProt Q96RG2) (Q96RG2 879-1323, change not shown): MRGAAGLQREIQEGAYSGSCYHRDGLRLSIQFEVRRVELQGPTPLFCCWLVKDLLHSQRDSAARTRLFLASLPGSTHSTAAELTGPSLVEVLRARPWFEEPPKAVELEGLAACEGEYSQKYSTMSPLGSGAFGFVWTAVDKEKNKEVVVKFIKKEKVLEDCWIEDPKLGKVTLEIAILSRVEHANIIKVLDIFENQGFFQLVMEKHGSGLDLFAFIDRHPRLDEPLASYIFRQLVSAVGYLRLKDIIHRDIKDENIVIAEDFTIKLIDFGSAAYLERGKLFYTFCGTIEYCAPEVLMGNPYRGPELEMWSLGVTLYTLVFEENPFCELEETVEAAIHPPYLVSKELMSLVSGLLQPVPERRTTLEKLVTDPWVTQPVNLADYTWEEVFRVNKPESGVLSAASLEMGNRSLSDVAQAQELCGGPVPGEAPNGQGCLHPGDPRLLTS
Description: PASK ATP Radiochemical Assay
Test compounds in DMSO are then added and the mixture, followed by delivery of ^33P-ATP (specific activity 0.01 μCi/μl final) to initiate the reaction. […] The entire reaction mixture is washed through onto a P81 Phosphocellulose paper and washed three times for 10 minutes in 75 mM phosphoric acid and once in methanol prior to drying and scintillation counting.

Chain of PASK (Homo sapiens (Human), UniProt Q96RG2) (Q96RG2 999-1251): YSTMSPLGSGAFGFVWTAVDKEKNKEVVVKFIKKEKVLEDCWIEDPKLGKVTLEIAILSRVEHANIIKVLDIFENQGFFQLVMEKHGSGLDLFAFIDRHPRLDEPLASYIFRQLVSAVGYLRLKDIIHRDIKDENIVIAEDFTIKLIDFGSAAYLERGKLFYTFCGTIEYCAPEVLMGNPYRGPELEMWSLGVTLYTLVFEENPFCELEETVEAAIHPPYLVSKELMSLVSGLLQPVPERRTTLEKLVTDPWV

IC50 (PASK [1]) [µM]	IC50 (PASK [2]) [µM]	SMILES
≤ 10	< 10	CC(C)N(C)c1nc2cc(C(=O)O)ccc2nc1-c1ccc2[nH]ccc2c1 [Example 84, 2-(1H-Indol-5-yl)-3-(isopropyl(methyl)amino)quinoxaline-6-carboxylic acid]
≤ 10	< 10	COCC1CCCN(c2nc3cc(C(=O)O)ccc3nc2-c2ccc(F)cc2)C1 (stereo not drawn) [Example 78, 2-(4-Fluorophenyl)-3-(3-(methoxymethyl)piperidin-1-yl)quinoxaline-6-carboxylic acid]
≤ 10	< 10	CC(C)N(C)c1nc2cc(C(=O)O)ccc2nc1-c1ccc2c(c1)OCO2 [Example 77, 2-(Benzo[d][1,3]dioxol-5-yl)-3-(isopropyl(methyl)amino)quinoxaline-6-carboxylic acid]
≤ 10	< 10	CC(C)N(C)c1nc2cc(C(=O)O)ccc2nc1-c1cc2ccccc2o1 [Example 89, 2-(Benzofuran-2-yl)-3-(isopropyl(methyl)amino)quinoxaline-6-carboxylic acid]
≤ 10	< 10	O=C(O)c1ccc2nc(-c3ccc(F)cc3)c(N3CCCCCC3)nc2c1 [Example 76, 3-(Azepan-1-yl)-2-(4-fluorophenyl)quinoxaline-6-carboxylic acid]
≤ 10	< 10	CC(C)N(C)c1nc2cc(C(=O)O)ccc2nc1-c1ccncc1 [Example 87, 3-(Isopropyl(methyl)amino)-2-(pyridin-4-yl)quinoxaline-6-carboxylic acid]
≤ 10	< 10	CC(C)N(C)c1nc2cc(C(=O)O)ccc2nc1-c1ccc2c(c1)OCCO2 [Example 81, 2-(2,3-Dihydrobenzo[b][1,4]dioxin-6-yl)-3-(isopropyl(methyl)amino)quinoxaline-6-carboxylic acid]
≤ 10	< 10	CC1(C)CCCN(c2nc3cc(C(=O)O)ccc3nc2-c2ccc(F)cc2)C1 [Example 79, 3-(3,3-Dimethylpiperidin-1-yl)-2-(4-fluorophenyl)quinoxaline-6-carboxylic acid]
≤ 10	< 10	COc1ccc2c(c1)CCCN2c1nc2cc(C(=O)O)ccc2nc1-c1ccccc1 [Example 66, 3-(6-Methoxy-3,4-dihydroquinolin-1(2H)-yl)-2-phenylquinoxaline-6-carboxylic acid]
≤ 10	< 10	CC(C)N(C)c1nc2cc(C(=O)O)ccc2nc1-c1ccc(F)c(F)c1 [Example 63, 2-(3,4-Difluorophenyl)-3-(isopropyl(methyl)amino)quinoxaline-6-carboxylic acid]
≤ 10	–	O=C(O)c1ccc2nc(-c3ccccc3)c(N3CCCC4CCCCC43)nc2c1 (stereo not drawn) [Example 96, 3-(Octahydroquinolin-1(2H)-yl)-2-phenylquinoxaline-6-carboxylic acid]
≤ 10	–	O=C(O)c1ccc2nc(-c3ccccc3)c(N3CC[C@@H](O)C3)nc2c1 [Example 49, (R)-3-(3-Hydroxypyrrolidin-1-yl)-2-phenylquinoxaline-6-carboxylic acid]
≤ 10	–	C[C@H](c1ccccc1)N(C)c1nc2cc(C(=O)O)ccc2nc1-c1ccccc1 [Example 59, (R)-3-(Methyl(1-phenylethyl)amino)-2-phenylquinoxaline-6-carboxylic acid]
≤ 10	–	CC(C)N(C)c1nc2cc(C(=O)O)ccc2nc1-c1ccc(N2CCOCC2)cc1 [Example 100, 3-(Isopropyl(methyl)amino)-2-(4-morpholinophenyl)quinoxaline-6-carboxylic acid]
≥ 10	–	O=C(O)c1ccc2nc(-c3ccc(F)cc3)c(N3CCS(=O)(=O)CC3)nc2c1 [Example 101, 3-(1,1-Dioxidothiomorpholino)-2-(4-fluorophenyl)quinoxaline-6-carboxylic acid]
≤ 10	–	CC(C)N(C)c1nc2cc(C(=O)O)ccc2nc1-c1cnc2ccccc2c1 [Example 99, 3-(Isopropyl(methyl)amino)-2-(quinolin-3-yl)quinoxaline-6-carboxylic acid]

The remaining lines, values behind:

SMILES	IC50 (PASK [1]) [µM]	IC50 (PASK [2]) [µM]
CC1CCCN(c2nc3cc(C(=O)O)ccc3nc2-c2ccc(F)cc2)C1 (stereo not drawn) [Example 80, 2-(4-Fluorophenyl)-3-(3-methylpiperidin-1-yl)quinoxaline-6-carboxylic acid]	≤ 10	< 10
O=C(O)c1ccc2nc(-c3ccccc3)c(N3CCC(c4ccccc4)CC3)nc2c1 [Example 13, 2-Phenyl-3-(4-phenylpiperidin-1-yl)quinoxaline-6-carboxylic acid]	–	< 10
CN(c1nc2cc(C(=O)O)ccc2nc1-c1ccccc1)C1CC1 [Example 46, 3-(Cyclopropyl(methyl)amino)-2-phenylquinoxaline-6-carboxylic acid]	≤ 10	< 10
CC(C)N(C)c1nc2cc(C(=O)O)ccc2nc1-c1ccc(Cl)cc1 [Example 64, 2-(4-Chlorophenyl)-3-(isopropyl(methyl)amino)quinoxaline-6-carboxylic acid]	≤ 10	< 10
O=C(O)c1ccc2nc(-c3ccccc3)c(N3CCN(c4cccc(Cl)c4)CC3)nc2c1 [Example 3, 3-(4-(3-Chlorophenyl)piperazin-1-yl)-2-phenylquinoxaline-6-carboxylic acid]	–	< 10
O=C(O)c1ccc2nc(-c3ccccc3)c(N3CCCc4ccccc43)nc2c1 [Example 40, 3-(3,4-Dihydroquinolin-1(2H)-yl)-2-phenylquinoxaline-6-carboxylic acid]	≤ 10	< 10
O=C(O)c1ccc2nc(-c3ccccc3)c(N3CCN(c4ccc(Cl)cc4)CC3)nc2c1 [Example 8, 3-(4-(4-Chlorophenyl)piperazin-1-yl)-2-phenylquinoxaline-6-carboxylic acid]	–	< 10
CN1CCN(c2nc3cc(C(=O)O)ccc3nc2-c2ccccc2)CC1 [Example 4, 3-(4-Methylpiperazin-1-yl)-2-phenylquinoxaline-6-carboxylic acid]	–	> 10
O=C(O)c1ccc2nc(-c3ccccc3)c(N3CCN(c4ccccn4)CC3)nc2c1 [Example 2, 2-Phenyl-3-(4-(pyridin-2-yl)piperazin-1-yl)quinoxaline-6-carboxylic acid]	–	< 10
O=C(O)c1ccc2nc(-c3ccccc3)c(N3CCCCCC3)nc2c1 [Example 14, 3-(Azepan-1-yl)-2-phenylquinoxaline-6-carboxylic acid]	–	< 10
O=C(O)c1ccc2nc(-c3ccccc3)c(N3CCC(c4cccc(Cl)c4)CC3)nc2c1 [Example 10, 3-(4-(3-Chlorophenyl)piperidin-1-yl)-2-phenylquinoxaline-6-carboxylic acid]	–	< 10
O=C(O)c1ccc2nc(-c3ccccc3)c(N3CCC(c4ccc(C(F)(F)F)cc4)CC3)nc2c1 [Example 7, 2-Phenyl-3-(4-(4-(trifluoromethyl)phenyl)piperidin-1-yl)quinoxaline-6-carboxylic acid]	–	< 10
O=C(O)c1ccc2nc(-c3ccccc3)c(N3CCC(c4ccc(Cl)cc4)CC3)nc2c1 [Example 15, 3-(4-(4-Chlorophenyl)piperidin-1-yl)-2-phenylquinoxaline-6-carboxylic acid]	–	< 10
O=C(O)c1ccc2nc(-c3ccccc3)c(N3CCN(c4ccccc4)CC3)nc2c1 [Example 6, 2-Phenyl-3-(4-phenylpiperazin-1-yl)quinoxaline-6-carboxylic acid]	–	< 10
COc1ccc(N2CCN(c3nc4cc(C(=O)O)ccc4nc3-c3ccccc3)CC2)cc1 [Example 9, 3-(4-(4-Methoxyphenyl)piperazin-1-yl)-2-phenylquinoxaline-6-carboxylic acid]	–	< 10
O=C(O)c1ccc2nc(-c3ccccc3)c(N3CCCCC3)nc2c1 [Example 12, 2-Phenyl-3-(piperidin-1-yl)quinoxaline-6-carboxylic acid]	–	< 10
CCN(CC)c1nc2cc(C(=O)O)ccc2nc1-c1ccccc1 [Example 36, 3-(Diethylamino)-2-phenylquinoxaline-6-carboxylic acid]	≤ 10	–
O=C(O)c1ccc2nc(-c3ccccc3)c(N3CCN(c4ccc(C(F)(F)F)cc4)CC3)nc2c1 [Example 1, 2-Phenyl-3-(4-(4-(trifluoromethyl)phenyl)piperazin-1-yl)quinoxaline-6-carboxylic acid]	–	< 10
